We go through two compounds from the NIST ThermoML archive (doi:10.1021/je900998f).

± gives the expanded uncertainty stated by the source.

For this series the following is noted: Liquid; for mass density / viscosity: 298.15 K; for mass density: 101.33 kPa, Vibrating tube method.

The term mass density denotes mass per unit of volume. A word on the viscosity: it is the resistance of a fluid to flow. With `CCOS(=O)(=O)[O-].CC[n+]1cccc(C)c1` [1-ethyl-3-methylpyridinium ethylsulfate], the mass density came out at 1222.26 ± 0.42 kg/m3 and the viscosity was determined as 161.4 ± 8.4 mPa·s.

What is called vapor or sublimation pressure is the pressure of vapour in equilibrium with the condensed phase. As to `CCO` [ethanol], the mass density amounted to 785.46 ± 0.12 kg/m3. Besides, under “Capillary tube (Ostwald / Ubbelohde) method”, the viscosity was 1.082 ± 0.073 mPa·s. The “vapor or sublimation pressure” value (351.44 K, Ebulliometric method (Recirculating still)) was 101.33 ± 0.1 kPa.
